Data from patent publication US10487054B2, “Therapeutic compounds” (REGENTS OF THE UNIVERSITY OF MINNESOTA, priority 2017, dated 2019).

Key:
TOPK = biological target: T1, TOPK (Homo sapiens, UniProt Q96KB5); test: Pull-down assay with HaCaT cell lysates; assay type: binding; conditions: HaCaT cell lysates 500 μg, Western blot
T1 construct: endogenous in cells; host or cells: HaCaT
T1 sequence (Q96KB5 1-322): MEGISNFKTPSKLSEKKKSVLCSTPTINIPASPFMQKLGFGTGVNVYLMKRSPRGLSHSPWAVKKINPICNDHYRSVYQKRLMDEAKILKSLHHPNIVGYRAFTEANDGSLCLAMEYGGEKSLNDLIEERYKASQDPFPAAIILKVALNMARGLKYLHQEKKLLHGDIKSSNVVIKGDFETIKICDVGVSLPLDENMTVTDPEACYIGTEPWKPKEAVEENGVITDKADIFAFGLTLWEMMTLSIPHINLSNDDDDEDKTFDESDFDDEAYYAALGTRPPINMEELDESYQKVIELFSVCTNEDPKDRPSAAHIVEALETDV
Procedure: (§1) Active TOPK (200 ng) was incubated with different concentrations of ATP (0, 10 or 100 μM) and then mixed with compound 1-conjugated Sepharose 4B beads or Sepharose 4B beads. Proteins were pulled down and analyzed by Western blot. Data are representative of 3 independent experiments that gave similar results. FIGS. 2C and 2D show compound 1 binds to either TOPK (2C) or MEK1/2 (2D) ex vivo. Lysates from HaCaT cells (500 μg) were incubated with compound 1-conjugated Sepharose 4B beads or Sepharose 4B beads alone and the pulled-down proteins were analyzed by Western blot. Data are representative of 3 independent experiments that gave similar results. FIGS. 2E and 2F show compound 1 inhibits TOPK kinase (2E) activity but not MEK1 kinase (2F) activity in vitro. Active TOPK (200 ng) was mixed with compound 1 (0, 0.5, 1, 3, or 5 μM) or HI-032 (TOPK inhibitor, 10 μM) and then incubated with a [γ-^32P] ATP mixture. Similarly, MEK1 (200 ng) was mixed with compound 1 (0, 0.5, 1, 3, 5, or 10 μM) or PD098059 (MEK1 inhibitor, 5 μM) and then incubated with a [γ-^32P] ATP mixture. For 2E and 2F, the results are visualized by autoradiography and Coomassie blue staining serves as a loading control. Data are representative of 3 independent experiments that gave similar results. […]

MEK1 = biological target: T2, MEK1 (Homo sapiens, UniProt Q02750); test: In vitro kinase assay ([γ-32P] ATP, autoradiography); assay type: biochemical; conditions: 0.5, 1, 3, 5 or 10 μM
T2 construct: purchased Millipore (Billerica, Mass.)
T2 sequence (Q02750 whole entry): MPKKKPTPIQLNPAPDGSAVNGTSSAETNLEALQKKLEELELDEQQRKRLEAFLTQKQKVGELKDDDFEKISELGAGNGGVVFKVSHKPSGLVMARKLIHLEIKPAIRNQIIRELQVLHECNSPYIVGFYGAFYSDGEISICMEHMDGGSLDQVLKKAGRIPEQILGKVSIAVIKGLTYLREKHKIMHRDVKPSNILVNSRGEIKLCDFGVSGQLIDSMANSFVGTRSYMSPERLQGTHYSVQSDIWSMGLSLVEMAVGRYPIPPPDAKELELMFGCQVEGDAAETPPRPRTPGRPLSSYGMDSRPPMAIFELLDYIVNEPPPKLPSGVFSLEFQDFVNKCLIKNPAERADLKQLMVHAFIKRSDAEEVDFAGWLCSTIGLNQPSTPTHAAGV
Procedure: as §1, with “control.” for “control. Data are representative of 3 independent experiments that gave similar results.”
(§2) The in vitro kinase assay was conducted according to the instructions provided by Millipore (Billerica, Mass.). […] The relative amounts of incorporated radioactivity were assessed by autoradiography.

active TOPK = biological target: T3, active TOPK (Homo sapiens, UniProt Q96KB5); test: as above; assay type: biochemical; conditions: 0.5, 1, 3 or 5 μM
T3 construct: purchased SignalChem (Richmond, BC, Canada)
T3 sequence (Q96KB5 1-322): T1 sequence (Q96KB5 1-322)
Procedure: as §1, with “control.” for “control. Data are representative of 3 independent experiments that gave similar results.”
as §2

## O=C1Nc2ccc(C34CC5CC(CC(C5)C3)C4)cc2C1=NO [compound 1, 5-(adamantan-1-yl)-3-(hydroxyimino)indolin-2-one]
TOPK
  binding of TOPK to compound-conjugated beads: detected in the compound 1-conjugated beads group but not in the beads only group
MEK1
  MEK1 kinase activity: but not MEK1 activity
Active TOPK
  TOPK kinase activity: effectively inhibited
